Experimental data taken from the NIST ThermoML archive (doi:10.1021/acs.jced.6b00497).
Numbers after ± are expanded uncertainties.

Settings: Crystal; DTA

O=C(O)c1cc(N=Nc2ccc(S(=O)(=O)Nc3ccccn3)cc2)ccc1O [Sulfasalazine]
Normal melting temperature: 220.00 ± 1 °C
